Test results from patent US12122811B2, “BDNF mimetic peptide amphiphiles” (Northwestern University, priority 2018, dated 2024).
Positions of bridges follow the written chain, without caps; N, C: chain ends. Non-standard residues stand in square brackets, D forms with d. Residues, ends and D or L forms follow the SMILES beside them. Chains are numbered I, II in the order given. *: point of attachment. PEG6 = NCCOCCOCCOCCOCCOCCOCCC(=O)O; Palmitoyl = CCCCCCCCCCCCCCCC(=O)*

B1: BDNF protein: Human/Murine/Rat BDNF protein (Peprotech) (protein, UniProt P23560 19-247, looked up)
Neurotrophic factor BDNF …: APMKEANIRGQGGLAYPGVRTHGTLESVNGPKAGSRGLTSLADTFEHVIEELLDEDQKVRPNEENNKDADLYTSRVMLSSQVPLEPPLLFLLEEYKNYLDAANMSMRVRRHSDPARRGELSVCDSISEWVTAADKKTAVDMSGGTVTVLEKVPVSKGQLKQYFYETKCNPMGYTKEGCRGIDKRHWNSQCRTTQSYVRALTMDSKKRIGWRFIRIDTSCVCTLTIKRGR

Experiments:
[1] = system: mouse model of spinal cord injury; assay: Mouse model of spinal cord injury, Basso Mouse Scale hind limb scoring; type: in vivo; conditions: for hindlimb function: over 12 weeks, vs E2 PA or saline
From the text: The spinal cord injury procedures used follow a standardized protocol to ensure a reproducible injury. Mice were anesthetized and their back is opened to reveal the vertebral column. The vertebral bone at T11 was surgically removed to reveal the spinal cord tissue. The mice were then transferred the impactor machine which is used to inflict a compression injury on the exposed spinal cord. The spinal cord was held in place using stereotactic clamps. The instrument inflicts a force of 70-80 kDynes and dwells in the place of the impact for 60 seconds to simulate a crush injury accident. This injury is quite severe. After each impact was performed, the instrument supplies a graph corresponding to the real force and trajectory of the impactor. This graph is used to compare and ensure that all animals receive an injury of the same nature. After the injury is inflicted, the animals were closed and allowed to rest for 24 hours.
The next day, the animals were re-opened and prepared for the “treatment” surgery. Before beginning the procedure, all animals underwent a behavioral assessment and mice with hind limb movement were discarded from the study. When the animal is re-opened, there was typically a dark, bruised area apparent where the crush injury took place the previous day. This is where the treatment was injected. A Hamilton syringe attached to a glass-pulled needle with a diameter of ˜300 μm was used to puncture the bruised dermis of the tissue and the treatment was injected into the underlying tissue cavity. Treatment types include; saline, and the C16V2A2E2 (E2) non-bioactive PA gel as negative controls, as well as the BDNF PA co-assembled at 20 mol % with the E2 non-bioactive PA gel.
After injection, the animals were closed and returned to cages to recover. Over the next 12 weeks, blinded hind limb behavioral scoring was performed to assess any functional changes (FIG. 21). A standardized “Basso Mouse Scale” was used (Basso et al. J Neurotrauma. 2006 May; 23(5):635-59.; herein incorporated by reference in its entirety). Two blinded researchers were either side of a runway where the mouse was guided to move in a straight line. As the mouse walks, each researcher grades the limb movement. Any discrepancies in evaluation were re-evaluated by a third researcher. The score for the two limbs was averaged and marked as the score for that animal.

[2] = Dynamic light scattering (DLS); type: physicochemical; conditions: BDNF PA at 100 mol %
Description: 2.2.2. Dynamic Light Scattering (DLS). Measurements were performed on a Malvern Zetasizer Nano ZSP light scattering spectrometer. Samples were prepared as previously described. During the sample measurement, the temperature was kept at 25° C. The sample was equilibrated for 30 seconds before each measurement was taken. The duration of each measurement was 10 seconds and the measurement angle was 173° backscatter. The attenuator was determined by the instrument automatically, as was the number of accumulations for each run. Each measurement run was repeated 3 times.

[3] = system: primary mouse cortical neurons; assay: Morphometric analysis of neurites (MAP2, SMI312 immunocytochemistry); type: cell-based; conditions: 24 h
Description: For morphometric analysis and cell viability assays, cells were cultured in 24 or 48 well plates at a density of 25,000 or 40,000 cells/well respectively, for three days before being treated. Cells were then treated for 24 hours, 3 days or 7 DIV. Samples were fixed in 4% PFA for 15 min (20 min for gels) at room temperature (RT) for immunofluorescence studies.
Immunofluorescence. For immunofluorescence, fixed samples (4% PFA for 15 min at RT) were incubated with primary antibodies overnight and Alexa 488 or Alexa 555 secondary antibodies (1:2000, Invitrogen) were used for 2 h at room temperature. The following primary antibodies were used: mouse anti-Tuj-1 (neuronal marker 1:4000, BioLegend), rabbit anti-Tuj-1 (neuronal marker, 1:4000, BioLegend) rabbit anti-MAP2 (marker for mature neurons 1:2000, BioLegend), mouse anti-SMI312 (axonal filament marker 1:1000, BioLegend), rabbit anti-Synaptophysin (marker for synaptic vesicles, 1:1000, Abcam) and DAPI (nuclear stain, 1:2000, Invitrogen). If not already in a glass bottom plate (MatTek), the preparations were mounted with Immu-Mount (Thermo Scientific) for imaging.
Imaging and Morphometric Analysis. Throughout the experiments, a digital camera (Nikon) mounted on a tissue culture microscope was used to take bright field images of cells. Nikon A1R confocal laser-scanning microscope with GaAsP detectors was used to visualize and image fluorescent preparations. Images were processed using an ImageJ (National Institutes of Health) plugin. Confocal images were reconstructed by NIS Elements Advanced Research Microscope Imaging software (version 4.20) or Imaris program (version 8.1, Bitplane Scientific software) for 3D interactive data viewing with normal or shadow projections of cells screened under Nikon A1R confocal laser-scanning microscope with GaAsP detectors.
For morphometric analysis, NeuronJ was used to trace and measure neuronal extensions.^4 For quantification of number of primary neurites and neurite length, a minimum of 60 randomly selected cells were analyzed with a minimum of 2 independent batches of culture for each condition. The images were arranged in Adobe Photoshop (v.7.0), with adjustments for contrast, brightness and color balance to obtain optimal visual reproduction of data.

neuronal cells = assay: Neuronal maturation markers (MAP2, PSD95) by immunocytochemistry and western blot; type: cell-based, mouse; conditions: neuronal cells (14 DIV) cultured during 16 DIV with treatment
Description: Western Blot. Protein was extracted from primary neuronal cultures with Halt Protease and Phosphatase Inhibitor Cocktail (Thermo Scientific) and a BCA assay (Thermo Scientific) was performed to determine protein content of each sample. Cell protein was loaded into and separated using a 4-20% SDS-PAGE gel (Bio-Rad). It was then electrotransferred from the gel to a nitrocellulose membrane (Bio-Rad). The membranes were blocked with 5% milk solution (Bio-Rad) for 30 minutes followed by an overnight incubation with primary antibodies at 4° C. […] Protein signals were detected using Radiance Bioluminescent ECL substrate (Azure Biosystems). Densitometry analysis, standardized to total receptor content or Actin as a control for protein loading, was performed using ImageJ software.^3 For quantification, triplicate samples were analyzed and at least two different experiments were conducted. […]

Molecule	final average limb behavioral score (Basso Mouse Scale) ([1]; 12 weeks after injury, BDNF PA co-assembled at 20 mol % with E2 PA gel, injected 24 h after injury)	rate of hindlimb improvement ([1]; first three weeks following injury)	hindlimb function [1]	hindlimb function ([1]; listed as BDNF mimetic PA)	micelle diameter (DLS) [2] [nm]	neurite number, BDNF PA versus native BDNF protein [3]	number of primary neurites ([3]; vs control conditions)	number of secondary neurites ([3]; vs control conditions)	total dendrite and axon length ([3]; vs native BDNF protein and control conditions)	MAP2 expression (neuronal maturation marker) (neuronal cells)
CCCCCCCCCCCCCCCC(=O)N[C@H](C(=O)N[C@H](C(=O)N[C@@H](C)C(=O)N[C@@H](C)C(=O)N[C@@H](CCC(=O)O)C(=O)N[C@@H](CCC(=O)O)C(=O)N[C@@H](CCC(=O)O)C(=O)N[C@@H](CCC(=O)O)C(=O)NCCOCCOCCOCCOCCOCCOCCC(=O)NCCCC[C@@H]1NC(=O)[C@H]2CCCN2C(=O)[C@H](CCCNC(=N)N)NC(=O)[C@H](CCCCN)NC(=O)[C@H](CCCCN)NC1=O)C(C)C)C(C)C [BDNF PA, RKK(aK)(dP)-(PEG6 Spacer)-EEEEAAVV-C16 (SEQ ID NO: 5)] (I: Palmitoyl-VVAAEEEE[PEG6] / II: cyclo(KKKR[dP]); amide I:C-II:1)	3.7	increased rate of hindlimb improvement	increased functional hind limb recovery	significant improvement in hindlimb function	~12	no statistical differences	positive tendency	significant increase	significant increase	significant increase
B1										significant increase
